Source: US20070270455A1, “INHIBITION OF NF-kB” (priority 2005, published 2007)

Tests used:
H1299-NF-kBLuc cells = assay: NF-κB-responsive luciferase reporter assay; assay type: cell-based
p53 = assay: Western blot of p53 phosphorylation status in RCC45 cells; assay type: cell-based; conditions: 9AA 5 μM or dox 1 μM, 16 hours
Experimental: Western blot analysis of total protein lysates was performed using antibodies against p53 (DO1) and against specific sites of phosphorylation in p53. […] HCT116 cells were treated for 30 minutes with 1 μM PS-341. PS-341 was washed off after 30 minutes and cells were re-incubated in drug free medium prior to analysis at 3 hours or 16 hours post-treatment. […] Proteasome activity was determined by measuring the absorbance of free AMC generated by cleavage of an AMC-fluorogenic peptide. The proteasome activity of untreated cells was set at 100%. […] Cell lysates were isolated at the indicated hours after treatment and used for western blotting. […]
Cells were lysed in RIPA buffer (25 mM Tris HCl, pH7.2, 125 mM NaCl, 1% NP40, 1% sodium deoxycholate, 1 mM EDTA) containing 1 mM PMSF (Sigma), 10 μg/ml of aprotinin (Sigma) and 10 μg/ml of leupeptin (Sigma). Protein concentrations were determined with BioRad Dc protein assay kit. […] The following antibodies were used: anti-p53—monoclonal mouse DO1 (Santa-Cruz), anti-p21—monoclonal mouse F-5 (Santa-Cruz), anti-mdm2—monoclonal mouse SMP14 (Santa-Cruz). p53 phosphorylation status was analyzed using phospho-p53 sampler kit from Cell signaling according to manufacturer's recommendations, anti-p65—(C20, Santa Cruz), anti-phospho-p65—(ser536, Cell Signaling), anti-IκBa—(C21, Santa Cruz), anti-p50—(NLS, Santa Cruz). […]

HT1080ConALuC tumors = assay: p53-dependent luciferase reporter in xenograft tumors; assay type: in vivo; conditions: intraperitoneal; 24 hours; nude mice
Experimental: HT1080ConALuC cells were inoculated into two flanks of nude mice. When tumors reach 5 mm in diameter, mice were injected intraperitoneally with indicated concentrations of the drugs (mg/kg, 3 mice per group). After 24 hours mice were sacrificed, tumors were isolated, lysed in Reporter Lysis Reagent (Promega) and luciferase activity was measured in […] of tumor proteins. Bars represent fold of induction of luciferase activity in tumors, treated with drugs over luciferase activity in tumors treated with vehicle. FIG. 5B: HT1080sip53 or HT1080siGFP cells were inoculated in the left and right flank of nude mice respectively.
NIH Swiss athymic nude, male mice, 5-6 weeks old were purchased from Harlan. 5×10^6 of tumor cells were inoculated into the flank of mice in 100 μL of PBS. […] As vehicle, 50% DMSO solution in PBS was used. Tumor size was measured in three dimensions every other day.
The in vivo anti-tumor effects of aminoacridines were tested in a xenograft tumor model using HT1080 cells differing in their p53 status and carrying p53 luciferase reporters grown subcutaneously in nude mice.

[1] = test system: normal kidney epithelial cells and human diploid fibroblasts WI38; assay: Cell survival assay in normal cells; assay type: cell-based
Experimental: The same experiment as described in FIG. 4A was performed with NKE, RCC45, RCC54 and ACHN cells.
5×10^3 of cells were plated in 6 well plates and treated with different concentrations of drugs for 24 hours. Then fresh drug-free medium was added. Number of colonies was estimated after 5-6 days of incubation. Cell survival was estimated as a percentage of intensity of methylene blue staining of treated cells, comparing with untreated control (methylene blue from stained colonies was extracted by 0.1% of SDS and quantitated spectrophotometrically).

p53 null H1299 cells = assay: p53-responsive reporter assay in p53 null cells; assay type: cell-based
Excerpt: Bars represent folds of p53 responsive reporter induction over untreated controls. Box represents western blot analysis of p53 expression in total protein lysates of both cells variants in basal and doxorubicin treated conditions (to evaluate basal and DNA-damage induced level of p53). […] Fold induction presented as fold of reporter activation over untreated control. […] Fold induction presented as fold of reporter activation over untreated control.
For cotransfection set-up, 2×10^5 cells were plated into 6 well plates and, after overnight incubation, transfected with Lipofectamin Plus reagent (Gibco BRL) with 0.5 μg of reporter plasmids (p21-ConALuc or pNF-κBLuc) in combination with different concentrations of p53, Arf, Ss-IκB, or siHDM2 expressing plasmids. Corresponding empty vectors were added into all transfections up to 2 μg of total DNA amount. […] Luciferase activity and β-galactosidase activity was measured in lysates prepared 48 hours after transfection with Cell Lysis Buffer (Promega) by luciferase assay system (Promega) or β-galactosidase enzyme system (Promega). Luminometric and colorimetric reactions were read on the Wallack 1420 plate reader (Perkin Elmer). […] Luciferase or β-galactosidase activity and protein concentration were measured in aliquots of cell lysates using standard kits (Promega, Luciferase and β-galactosidase assay systems, Biorad Protein Assay Kit).

RCC cell lines = assay: Restoration of p53-mediated transactivation in RCC cell lines; assay type: cell-based; conditions: data not shown
RCC45ConALacZ cells = assay: p53-responsive reporter (ConALacZ) β-galactosidase assay in RCC45 cells; assay type: cell-based; conditions: compared with doxorubicin
Experimental: 2×10^4 of RCC45ConALacZ cells were plated into wells of 96 well plates in 200 μL of phenol-red free RPMI medium with standard additives. After overnight incubation library of chemical compounds in DMSO solution together with controls was added with the help of plastic bacterial replicators (200+/−100 nL). Final concentration of compounds was around 5 μg/ml. Negative control was DMSO, positive control was doxorubicin solution (0.2, 0.6 and 2 μM). After 24 hours lysis buffer with ONPG was added directly to the medium on ice. After 3 hours of incubation at 37° C., β-galactosidase activity was estimated by reading absorbance values Wallack 1420 plate reader (Perkin Elmer) at λ=430 nm.
For cotransfection set-up, 2×10^5 cells were plated into 6 well plates and, after overnight incubation, transfected with Lipofectamin Plus reagent (Gibco BRL) with 0.5 μg of reporter plasmids (p21-ConALuc or pNF-κBLuc) in combination with different concentrations of p53, Arf, Ss-IκB, or siHDM2 expressing plasmids. […] Luciferase activity and β-galactosidase activity was measured in lysates prepared 48 hours after transfection with Cell Lysis Buffer (Promega) by luciferase assay system (Promega) or β-galactosidase enzyme system (Promega). Luminometric and colorimetric reactions were read on the Wallack 1420 plate reader (Perkin Elmer). […]

SMILES: Nc1c2ccccc2nc2ccccc12 [9AA, 9-aminoacridine]
- TSA-stimulated NF-κB-dependent transcription (H1299-NF-kBLuc cells; 100 nM TSA): could not be blocked
- NF-κB-responsive reporter activity (H1299-NF-kBLuc cells; basal and TNF-induced (10 ng/ml)): inhibited basal and TNF-induced activity of the reporter
- p53 phosphorylation status (p53): did not affect
- activation of p53 in tumors (HT1080ConALuC tumors): capable of activating p53 in tumors
- sensitivity of normal cells compared with RCC and other tumor cells [1]: more resistant to 9AA
- stimulation of p53 reporter activity (p53 null H1299 cells): no stimulation of reporter activity
- RCC cell lines with restored p53-mediated transactivation (RCC cell lines): 9 out of 10
- p53 reactivation / reporter induction (in words) (RCC45ConALacZ cells): much stronger than doxorubicin
